Experimental data as given in US12522587B2, “Cancer treatments targeting cancer stem cells” (Remedy Plan, Inc., priority 2018, dated 2026).

Test system: AGS human gastric adenocarcinoma cells
Test: Human microarray study (Affymetrix Clariom S) of treated AGS cells
Format: cell-based
Conditions: two days
Experimental: AGS human gastric adenocarcinoma cells were treated with compound I-1, or DMSO alone (as a negative control) for two days. After two days, RNA was isolated from compound I-1 treated cells and DMSO treated cells, in duplicate, and subjected to microarray analysis using AFFYMETRIX CLARIOM S microarrays. Data were represented as fold change relative to the compound I-1 treated cells, negative values represented genes that were on higher in compound I-1 treated cells than in DMSO treated cells, and positive values represented genes that were on higher in DMSO treated cells than in compound I-1 treated cells. Values were averaged for the duplicate samples. We included data for the genes whose expression was altered by more than 3 fold, either up or down, in response to compound I-1.
Negative numbers indicate fold upregulation upon drug treatment. Positive numbers indicate fold downregulation upon drug treatment. […] In addition, Chac1, PCK2, and SLC7A11 were all shown to have a tumor promoting activity and to be associated with the more dangerous and lethal forms of cancer, and these three genes were the three most strongly repressed genes measured in this analysis. There were other examples in the data that supported this model, but the overall model was that compound I-1 increased the expression of tumor suppressor genes, and decreased the expression of tumor promoting genes.

In the case of `CCC(=O)N1CCc2cc(-c3ccc(C(=O)NCc4cccnc4)cc3)ccc21` [Compound I-1], the “Fold Change MVK” value (negative = upregulated) is reported as −3.11 fold, the “Fold Change MXD1” value (negative = upregulated) is reported as −6.23 fold and the “Fold Change MYLIP; MIR4639” value (negative = upregulated) is reported as −3.88 fold. The “Fold Change NEU1” value (negative = upregulated) was −4.89 fold, the “Fold Change NEURL3” value (negative = upregulated) was −3.41 fold and the “Fold Change NFAT5” value (negative = upregulated) was −3.32 fold. The “Fold Change NFKBIA” value (negative = upregulated) was −4.97 fold, the “Fold Change NR1D1” value (negative = upregulated) was −23.3 fold and the “Fold Change NR1D2” value (negative = upregulated) was −3.01 fold. For the same compound, the “Fold Change NSDHL” value (negative = upregulated) was −3.29 fold, the “Fold Change OCLM” value (negative = upregulated) was −3.22 fold and the “Fold Change OSGIN1” value (negative = upregulated) was −3.63 fold. The “Fold Change OTUD1” value (negative = upregulated) was −3.29 fold, the “Fold Change OVOL1” value (negative = upregulated) was −4.01 fold and the “Fold Change PADI1” value (negative = upregulated) was −3.48 fold. The “Fold Change PCDH7” value (negative = upregulated) was −3.81 fold, the “Fold Change PDGFRL” value (negative = upregulated) was −6.65 fold and the “Fold Change PERI; MIR6883” value (negative = upregulated) was −16.75 fold. For the same compound, the “Fold Change PGM2L1” value (negative = upregulated) was −3.76 fold, the “Fold Change PIM1” value (negative = upregulated) was −3.7 fold and the “Fold Change PLK2” value (negative = upregulated) was −3.13 fold. For the same compound, the “Fold Change PLPP3” value (negative = upregulated) was −3.74 fold, the “Fold Change POLR2L” value (negative = upregulated) was −3.14 fold and the “Fold Change PRDM1” value (negative = upregulated) was −3.06 fold. For the same compound, the “Fold Change PRSS22” value (negative = upregulated) was −4.6 fold, the “Fold Change PSCA” value (negative = upregulated) was −3.18 fold and the “Fold Change PVRL1” value (negative = upregulated) was −3.57 fold. The “Fold Change PVRL4” value (negative = upregulated) was −3.32 fold, the “Fold Change RAB30” value (negative = upregulated) was −3.82 fold and the “Fold Change RASSF5” value (negative = upregulated) was −5.9 fold. For the same compound, the “Fold Change RBM26” value (negative = upregulated) was −6.5 fold, the “Fold Change REG1A” value (negative = upregulated) was −3.05 fold and the “Fold Change RHOV” value (negative = upregulated) was −4.66 fold. For the same compound, the “Fold Change RND1” value (negative = upregulated) was −5.3 fold, the “Fold Change RRAGC” value (negative = upregulated) was −3.01 fold and the “Fold Change RSRP1” value (negative = upregulated) was −3.61 fold. The “Fold Change RYBP” value (negative = upregulated) was −3.38 fold, the “Fold Change SAT2” value (negative = upregulated) was −3.99 fold and the “Fold Change SC5D” value (negative = upregulated) was −3.39 fold. The “Fold Change SEC24D” value (negative = upregulated) was −3.84 fold, the “Fold Change SLC20A1” value (negative = upregulated) was −4.87 fold and the “Fold Change SLC25A25” value (negative = upregulated) was −3.73 fold. For the same compound, the “Fold Change SLC30A1” value (negative = upregulated) was −4.84 fold, the “Fold Change SLN” value (negative = upregulated) was −5.63 fold and the “Fold Change SPATA5” value (negative = upregulated) was −3.26 fold. For the same compound, the “Fold Change SQLE” value (negative = upregulated) was −4.32 fold, the “Fold Change STK17B” value (negative = upregulated) was −6.26 fold and the “Fold Change SUSD6” value (negative = upregulated) was −3.48 fold. The “Fold Change TAF5” value (negative = upregulated) was −3.41 fold, the “Fold Change TEF” value (negative = upregulated) was −6.45 fold and the “Fold Change TGFBR3” value (negative = upregulated) was −3.86 fold. The “Fold Change TIAL1” value (negative = upregulated) was −4.62 fold, the “Fold Change TKT” value (negative = upregulated) was −3.56 fold and the “Fold Change TMEM2” value (negative = upregulated) was −4.49 fold. The “Fold Change TMEM263” value (negative = upregulated) was −3.01 fold, the “Fold Change TMPRSS2” value (negative = upregulated) was −5.06 fold and the “Fold Change TNFSF13B” value (negative = upregulated) was −4.12 fold. For the same compound, the “Fold Change TRIM24” value (negative = upregulated) was −3.01 fold, the “Fold Change UGDH” value (negative = upregulated) was −4.16 fold and the “Fold Change YBX1” value (negative = upregulated) was −3.62 fold. The “Fold Change ZNF114” value (negative = upregulated) was −7.07 fold, the “Fold Change ZNRF3” value (negative = upregulated) was −3.14 fold and the “Fold Change ZSWIM6” value (negative = upregulated) was −3.28 fold. The “Fold Change SQSTM1” value (negative = upregulated, first SQSTM1 entry) was −4.27 fold, the “Fold Change SQSTM1” value (negative = upregulated, second SQSTM1 entry) was −3.5 fold and the “Fold Change AARS” value (positive = downregulated) was 3.12 fold. For the same compound, the “Fold Change AJUBA” value (positive = downregulated) was 8.65 fold, the “Fold Change AKTIP” value (positive = downregulated) was 3.39 fold and the “Fold Change ARHGEF2” value (positive = downregulated) was 4.73 fold. For the same compound, the “Fold Change ASNS” value (positive = downregulated) was 12.78 fold, the “Fold Change ASS1” value (positive = downregulated) was 7.34 fold and the “Fold Change ATF5; MIR4751” value (positive = downregulated) was 6.55 fold. The “Fold Change BRCA1” value (positive = downregulated) was 4.22 fold, the “Fold Change BTC” value (positive = downregulated) was 5.04 fold and the “Fold Change C4BPB” value (positive = downregulated) was 3.69 fold. The “Fold Change C5orf28” value (positive = downregulated) was 4.4 fold, the “Fold Change C12orf4” value (positive = downregulated) was 3.45 fold and the “Fold Change C14orf79” value (positive = downregulated) was 3.68 fold. The “Fold Change C17orf80” value (positive = downregulated) was 4.3 fold, the “Fold Change CARS” value (positive = downregulated) was 5.53 fold and the “Fold Change CCDC125” value (positive = downregulated) was 3.31 fold. For the same compound, the “Fold Change CCDC138” value (positive = downregulated) was 3.07 fold, the “Fold Change CDC7” value (positive = downregulated) was 3.01 fold and the “Fold Change CDH11” value (positive = downregulated) was 4.69 fold. For the same compound, the “Fold Change CDX2” value (positive = downregulated) was 3.07 fold.
